Laboratory results reported in paper PMC12540828, “Fexofenadine protects against osteoarthritis by targeting Smad2 and STAT1 to enhance anabolism and binding cPLA2 to inhibit catabolism” (Cell Death Discovery, 2025).
pKd: −log10 of the molar value.

How the values were obtained:
cPLA2 = target: T1, cPLA2 (Homo sapiens, UniProt P47712); assay: DARTS, Western blot; type: biochemical; settings: chondrocyte lysate; protease digestion
T1 construct: gene PLA2G4A; endogenous, chondrocyte lysate, read by Western blot
T1 sequence (P47712 1-749): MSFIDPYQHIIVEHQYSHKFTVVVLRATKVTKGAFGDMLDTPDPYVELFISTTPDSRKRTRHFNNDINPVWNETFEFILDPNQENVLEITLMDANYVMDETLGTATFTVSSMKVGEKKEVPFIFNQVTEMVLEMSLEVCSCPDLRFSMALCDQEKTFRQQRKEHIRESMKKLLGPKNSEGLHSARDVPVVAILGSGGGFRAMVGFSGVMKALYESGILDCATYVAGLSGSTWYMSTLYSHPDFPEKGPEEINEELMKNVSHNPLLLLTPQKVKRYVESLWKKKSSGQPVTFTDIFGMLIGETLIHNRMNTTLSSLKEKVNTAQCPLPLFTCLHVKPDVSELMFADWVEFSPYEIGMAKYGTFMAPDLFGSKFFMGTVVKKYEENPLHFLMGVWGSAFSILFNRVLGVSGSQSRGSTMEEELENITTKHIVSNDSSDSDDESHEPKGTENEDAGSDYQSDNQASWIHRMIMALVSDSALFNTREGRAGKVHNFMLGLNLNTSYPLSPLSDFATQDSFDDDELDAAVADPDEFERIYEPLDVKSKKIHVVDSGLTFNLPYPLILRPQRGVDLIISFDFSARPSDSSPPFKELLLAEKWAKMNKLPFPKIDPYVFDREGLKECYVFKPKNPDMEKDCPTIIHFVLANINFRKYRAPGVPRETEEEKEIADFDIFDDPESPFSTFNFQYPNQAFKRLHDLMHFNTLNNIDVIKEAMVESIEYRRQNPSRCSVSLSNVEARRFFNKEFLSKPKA

[1] = target: T2, STAT1 (purified recombinant, His-tagged) (Homo sapiens, UniProt P42224); assay: microscale thermophoresis; type: binding
T2 construct: purified recombinant, His-tagged, RED-NHS labelled
T2 sequence (P42224 2-750): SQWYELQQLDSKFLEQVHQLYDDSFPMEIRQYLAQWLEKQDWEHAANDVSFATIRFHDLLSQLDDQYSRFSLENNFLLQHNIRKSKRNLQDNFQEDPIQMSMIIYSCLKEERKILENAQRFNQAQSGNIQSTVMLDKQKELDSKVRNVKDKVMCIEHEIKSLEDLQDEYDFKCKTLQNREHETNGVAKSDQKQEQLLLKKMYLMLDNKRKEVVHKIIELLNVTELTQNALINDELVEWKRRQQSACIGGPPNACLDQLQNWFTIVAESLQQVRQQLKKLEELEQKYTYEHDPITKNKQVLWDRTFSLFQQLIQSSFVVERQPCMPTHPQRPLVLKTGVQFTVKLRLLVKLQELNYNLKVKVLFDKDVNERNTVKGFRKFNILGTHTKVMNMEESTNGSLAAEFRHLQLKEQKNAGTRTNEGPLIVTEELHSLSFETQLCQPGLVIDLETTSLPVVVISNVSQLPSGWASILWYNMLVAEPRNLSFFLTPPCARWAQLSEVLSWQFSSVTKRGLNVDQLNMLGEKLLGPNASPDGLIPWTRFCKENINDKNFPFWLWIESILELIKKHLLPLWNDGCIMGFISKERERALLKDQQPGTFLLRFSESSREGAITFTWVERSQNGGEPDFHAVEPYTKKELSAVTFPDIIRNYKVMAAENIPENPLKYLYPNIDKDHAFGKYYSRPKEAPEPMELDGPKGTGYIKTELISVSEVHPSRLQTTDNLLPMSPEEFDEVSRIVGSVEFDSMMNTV

[2] = target: T3, STAT1 (endogenous, human chondrocytes) (Homo sapiens, UniProt P42224); assay: CETSA, Western blot; type: biochemical; settings: FFD 10 μM
T3 construct: endogenous, read by Western blot
T3 sequence (P42224 2-750): T2 sequence (P42224 2-750)

[3] = target: T4, Smad2 (endogenous, human chondrocytes) (Homo sapiens, UniProt Q15796); assay: CETSA and DARTS, Western blot; type: biochemical; settings: CETSA with FFD 10 μM
T4 construct: endogenous, read by Western blot
T4 sequence (Q15796 2-467): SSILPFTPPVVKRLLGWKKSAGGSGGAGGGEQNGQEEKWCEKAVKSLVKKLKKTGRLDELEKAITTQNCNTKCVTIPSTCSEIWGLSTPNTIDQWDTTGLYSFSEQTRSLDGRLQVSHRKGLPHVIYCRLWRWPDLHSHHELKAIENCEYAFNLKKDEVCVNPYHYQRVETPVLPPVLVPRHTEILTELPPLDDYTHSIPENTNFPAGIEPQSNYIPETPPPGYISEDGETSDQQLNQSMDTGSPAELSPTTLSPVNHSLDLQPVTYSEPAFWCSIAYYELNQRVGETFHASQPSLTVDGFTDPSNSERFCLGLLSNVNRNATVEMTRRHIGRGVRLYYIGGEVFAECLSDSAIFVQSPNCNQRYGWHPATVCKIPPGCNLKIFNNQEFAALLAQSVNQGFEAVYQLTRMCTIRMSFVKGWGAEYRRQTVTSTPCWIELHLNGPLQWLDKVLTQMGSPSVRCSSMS

- pKd [1]: 5.52
- Tm with FFD (control 50.49) [2]: 60.01 °C
SMILES: CC(C)(C(=O)O)c1ccc(C(O)CCCN2CCC(C(O)(c3ccccc3)c3ccccc3)CC2)cc1 (stereo not shown) [Fexofenadine]
- DARTS, Western blot (cPLA2): cPLA2 remained undigested by the protease following incubation with FFD
- CETSA and DARTS, Western blot [3]: DARTS and CETSA experiments subsequently confirmed the interaction between FFD and Smad2
